Assay: xn = mol fraction of the nth substance listed
Settings: 101 kPa, Liquid; for viscosity: Capillary tube (Ostwald / Ubbelohde) method; for speed of sound: Pulse-echo method

CCOC(=O)CCl [ethyl chloroethanoate] + N#CCc1ccccc1
Settings | mass density, 303.15 K [kg/m3] | mass density, 308.15 K [kg/m3] | mass density, 313.15 K [kg/m3] | speed of sound, 303.15 K [m/s] | speed of sound, 308.15 K [m/s] | speed of sound, 313.15 K [m/s] | viscosity, 303.15 K [mPa·s] | viscosity, 308.15 K [mPa·s] | viscosity, 313.15 K [mPa·s]
x2 = 0 | 1139.3 | 1132.5 | 1125.9 | 1229.4 | 1212.4 | 1197.6 | 0.9692 | 0.8979 | 0.8341
x2 = 0.0205 | 1135.8 | 1129.8 | 1123.2 | 1235.7 | 1218.9 | 1204 | 0.9824 | 0.9115 | 0.8463
x2 = 0.1376 | 1119.2 | 1114.3 | 1107.6 | 1268.8 | 1254 | 1240.4 | 1.069 | 0.9906 | 0.9164
x2 = 0.2585 | 1102.6 | 1098.5 | 1091.7 | 1303.2 | 1291.5 | 1279 | 1.161 | 1.072 | 0.9925
x2 = 0.3793 | 1086.4 | 1083.3 | 1076.2 | 1338.7 | 1328.4 | 1316.6 | 1.254 | 1.155 | 1.07
x2 = 0.4843 | 1072.6 | 1069.8 | 1062.8 | 1370.5 | 1361.6 | 1348.5 | 1.336 | 1.229 | 1.139
x2 = 0.5875 | 1059.3 | 1056.4 | 1049.8 | 1400.6 | 1388.9 | 1381 | 1.419 | 1.302 | 1.207
x2 = 0.7152 | 1043.2 | 1040 | 1034 | 1438.2 | 1426.3 | 1419.9 | 1.523 | 1.394 | 1.292
x2 = 0.8434 | 1027.5 | 1023.7 | 1018.3 | 1476.9 | 1466 | 1457.4 | 1.628 | 1.488 | 1.379
x2 = 0.9764 | 1011.6 | 1007 | 1002.3 | 1516 | 1505.6 | 1495.8 | 1.74 | 1.584 | 1.471

CCOC(=O)CC#N [ethyl cyanoacetate] + N#CCc1ccccc1
Settings | mass density, 303.15 K [kg/m3] | mass density, 308.15 K [kg/m3] | mass density, 313.15 K [kg/m3] | speed of sound, 303.15 K [m/s] | speed of sound, 308.15 K [m/s] | speed of sound, 313.15 K [m/s] | viscosity, 303.15 K [mPa·s] | viscosity, 308.15 K [mPa·s] | viscosity, 313.15 K [mPa·s]
x2 = 0 | 1051.4 | 1046.5 | 1040.8 | 1396.9 | 1384.8 | 1367.7 | 2.186 | 1.962 | 1.77
x2 = 0.0223 | 1050.1 | – | 1039.8 | 1399.6 | – | 1370.4 | 2.179 | – | 1.764
x2 = 0.0233 | – | 1045.6 | – | – | 1386.5 | – | – | 1.955 | –
x2 = 0.1383 | 1044.4 | 1040.9 | 1034.8 | 1412.3 | 1397.7 | 1384.6 | 2.135 | 1.917 | 1.733
x2 = 0.2569 | 1038.8 | 1035.9 | 1029.9 | 1424.4 | 1410 | 1399.1 | 2.088 | 1.877 | 1.701
x2 = 0.3778 | 1033.4 | 1030.8 | 1025.3 | 1436 | 1423.7 | 1414.2 | 2.039 | 1.836 | 1.671
x2 = 0.4842 | 1028.9 | 1026.3 | 1021.1 | 1448 | 1436.3 | 1429.2 | 1.995 | 1.799 | 1.644
x2 = 0.5882 | 1024.6 | 1021.8 | 1016.8 | 1461.3 | 1450.4 | 1442 | 1.95 | 1.761 | 1.612
x2 = 0.7172 | 1019.4 | 1016.2 | 1011.4 | 1479.4 | 1468.5 | 1459.4 | 1.893 | 1.713 | 1.572
x2 = 0.8426 | 1014.6 | 1010.9 | 1005.8 | 1496.9 | 1487.6 | 1478 | 1.835 | 1.664 | 1.535
x2 = 0.9759 | 1009.7 | 1005.2 | 1000.4 | 1515.5 | 1508.7 | 1495.9 | 1.773 | 1.612 | 1.496

N#CCc1ccccc1 [benzeneacetonitrile] + CCOC(C)=O
Settings | mass density, 303.15 K [kg/m3] | mass density, 308.15 K [kg/m3] | mass density, 313.15 K [kg/m3] | speed of sound, 303.15 K [m/s] | speed of sound, 308.15 K [m/s] | speed of sound, 313.15 K [m/s] | viscosity, 303.15 K [mPa·s] | viscosity, 308.15 K [mPa·s] | viscosity, 313.15 K [mPa·s]
x1 = 0.0198 | 892.4 | 887.4 | 880.8 | 1125.1 | 1109.3 | 1104.3 | 0.396 | 0.376 | 0.357
x1 = 0.1279 | 910.4 | 905.4 | 899.6 | 1173.8 | 1164.8 | 1159.7 | 0.483 | 0.458 | 0.431
x1 = 0.2425 | 926.8 | 922.7 | 916.9 | 1230.8 | 1218.2 | 1209.3 | 0.591 | 0.556 | 0.524
x1 = 0.3589 | 942.3 | 938 | 933.4 | 1286.7 | 1278.4 | 1263.6 | 0.714 | 0.668 | 0.627
x1 = 0.461 | 955.3 | 950.9 | 946.5 | 1326.1 | 1312.5 | 1303.1 | 0.839 | 0.781 | 0.733
x1 = 0.5665 | 967.5 | 963.3 | 958.5 | 1366.7 | 1355.1 | 1344.9 | 0.984 | 0.914 | 0.856
x1 = 0.6978 | 981.5 | 978.1 | 972.4 | 1417.8 | 1410.8 | 1400 | 1.18 | 1.092 | 1.017
x1 = 0.8328 | 994.9 | 991.8 | 985.2 | 1464.3 | 1461.3 | 1446.8 | 1.416 | 1.307 | 1.209
x1 = 0.9745 | 1006.5 | 1002.6 | 998.1 | 1508.3 | 1500.5 | 1490 | 1.695 | 1.554 | 1.43
x1 = 1 | 1008.8 | 1004.1 | 999.5 | 1519.2 | 1512.9 | 1503.4 | 1.761 | 1.602 | 1.489
